Reference: US11459323B2, “Monocyclic β-lactam compound for treating bacterial infection” (MEDSHINE DISCOVERY INC., priority 2018, dated 2022)
Converted amounts (≈) assume the structure as drawn. Where two headings read alike, the source gives them in different places. Each block holds one compound with its values, some of them ahead of it.

How the values were obtained:
[1] = system: E. coli ATCC 25922; assay: MIC by micro-liquid dilution method (CLSI); format: cell-based; conditions: Escherichia coli; E. coli ATCC25922; read-out: MIC
[2] = system: K. pneumoniae ATCC BAA-1705 (KPC-2); assay: MIC by micro-liquid dilution method (CLSI); format: cell-based, Klebsiella pneumonia; conditions: Klebsiella pneumoniae, ATCCBAA1705; K. pneumoniae ATCCBAA-1705; read-out: MIC
[3] = system: A. baumannii ATCC 17978; assay: MIC by micro-liquid dilution method (CLSI); format: cell-based; conditions: Acinetobacter baumannii; A. baumannii ATCC17978; read-out: MIC
[4] = system: P. aeruginosa PA 14; assay: MIC by micro-liquid dilution method (CLSI); format: cell-based; conditions: Pseudomonas aeruginosa, PA14; P. aeruginosa PA 14; read-out: MIC
Text: (§1) Three strains of Klebsiella pneumonia, K. pneumoniae ATCC BAA-205 (TEM-1/SHV-1/SHV-12), K. pneumoniae ATCC BAA-1705 (KPC-2), K. pneumoniae ATCC BAA-2470 (NDM-1); three strains of Pseudomonas aeruginosa, P. aeruginosa NCTC13437 (VIM-10; VEB-1), P. aeruginosa PA 14 and P. aeruginosa ATCC 35151; four strains of Escherichia coli, E. coli NCTC 13476 (IMP-1 type), E. coli ATCC BAA-2523 (OXA-48), E. coli MG1655Δtol C, E. coli ATCC 25922; one strain of Acinetobacter baumannii, A. baumannii ATCC 17978 and one strain of Staphylococcus aureus, S. aureus NRS384 were used to determine the minimum inhibitory concentration (MIC) of the compounds by micro-liquid dilution method according to the Institute of Clinical and Laboratory Standard (CLSI) requirements.

[5] = system: E. coli MG1655Δtol C; assay: MIC by micro-liquid dilution method (CLSI); format: cell-based; conditions: Escherichia coli
Text: as §1

[6] = system: E. coli ATCC BAA-2523 (OXA-48); assay: MIC by micro-liquid dilution method (CLSI); format: cell-based; conditions: Escherichia coli, ATCCBAA2523; E. coli ATCCBAA-2523; read-out: MIC
Text: as §1

[7] = system: E. coli NCTC 13476 (IMP-1 type); assay: MIC by micro-liquid dilution method (CLSI); format: cell-based; conditions: Escherichia coli; E. coli NCTC13476; read-out: MIC
Text: as §1

[8] = system: K. pneumoniae ATCC BAA-2470 (NDM-1); assay: MIC by micro-liquid dilution method (CLSI); format: cell-based, Klebsiella pneumonia; conditions: Klebsiella pneumoniae, ATCCBAA2470; K. pneumoniae ATCCBAA-2470; read-out: MIC
[9] = system: P. aeruginosa ATCC 35151; assay: MIC by micro-liquid dilution method (CLSI); format: cell-based; conditions: Pseudomonas aeruginosa; P. aeruginosa ATCC35151; read-out: MIC
[10] = system: Acinetobacter baumannii ATCC-BAA-1789; assay: MIC on Acinetobacter baumannii strains; format: cell-based; conditions: ATCCBAA1789
Text: (§2) Twelve strains of Acinetobacter baumannii, A. baumannii ATCC 17978 (ATCC-BAA-1605, ATCC-BAA-1789, ATCC-BAA-1790, ATCC-BAA-1791, ATCC-BAA-1792, ATCC-BAA-1793, ATCC-BAA-1794, ATCC-BAA-1795, ATCC-BAA-1799, ATCC-BAA-1800, ATCC 19606, ATCC 17978) were used to determine the minimum inhibitory concentration (MIC) of the compounds by micro-liquid dilution method according to the Institute of Clinical and Laboratory Standard (CLSI) requirements.

[11] = system: Acinetobacter baumannii ATCC 17978; assay: MIC on Acinetobacter baumannii strains; format: cell-based; conditions: ATCC17978
Text: as §2

[12] = system: Acinetobacter baumannii ATCC-BAA-1799; assay: MIC on Acinetobacter baumannii strains; format: cell-based; conditions: ATCCBAA1799, ATCC-BAA-1799, read-out: MIC
Text: as §2

[13] = system: Acinetobacter baumannii ATCC-BAA-1795; assay: MIC on Acinetobacter baumannii strains; format: cell-based; conditions: ATCCBAA1795
Text: as §2

[14] = system: Acinetobacter baumannii ATCC-BAA-1793; assay: MIC on Acinetobacter baumannii strains; format: cell-based
Text: as §2

[15] = system: Acinetobacter baumannii ATCC-BAA-1792; assay: MIC on Acinetobacter baumannii strains; format: cell-based; conditions: ATCCBAA1792, ATCC-BAA-1792, read-out: MIC
Text: as §2

[16] = system: Acinetobacter baumannii ATCC-BAA-1800; assay: MIC on Acinetobacter baumannii strains; format: cell-based
Text: as §2

[17] = system: Acinetobacter baumannii ATCC-BAA-1794; assay: MIC on Acinetobacter baumannii strains; format: cell-based; conditions: ATCCBAA1794, ATCC-BAA-1794, read-out: MIC
Text: as §2

[18] = system: Acinetobacter baumannii ATCC-BAA-1791; assay: MIC on Acinetobacter baumannii strains; format: cell-based; conditions: ATCCBAA1791
Text: as §2

[19] = system: Acinetobacter baumannii ATCC 19606; assay: MIC on Acinetobacter baumannii strains; format: cell-based; conditions: ATCC19606
Text: as §2

[20] = system: Acinetobacter baumannii ATCC-BAA-1790; assay: MIC on Acinetobacter baumannii strains; format: cell-based; conditions: ATCCBAA1790, ATCC-BAA-1790, read-out: MIC
Text: as §2

[21] = system: Acinetobacter baumannii ATCC-BAA-1605; assay: MIC on Acinetobacter baumannii strains; format: cell-based; conditions: ATCCBAA1605, ATCC-BAA-1605, read-out: MIC
Text: as §2

[22] = system: K. pneumoniae ATCC BAA-205 (TEM-1/SHV-1/SHV-12); assay: MIC by micro-liquid dilution method (CLSI); format: cell-based, Klebsiella pneumonia; conditions: Klebsiella pneumoniae, ATCCBAA205; K. pneumoniae ATCCBAA-205; read-out: MIC
[23] = ATCCBAA1793, ATCC-BAA-1793, read-out: MIC
[24] = ATCCBAA1800, ATCC-BAA-1800, read-out: MIC

SMILES: CC1(C)[C@H](NC(=O)/C(=N\OCCOc2ccc3c(c2)CCN(CCCN)C3)c2csc(N)n2)C(=O)N1OS(=O)(=O)O [Compound 6]
MIC [1]: 0.5 µg/mL (≈ 0.817 µM)
MIC [2]: 4 µg/mL (≈ 6.54 µM)
MIC [3]: 4 µg/mL (≈ 6.54 µM)
MIC [4]: 16 µg/mL (≈ 26.2 µM)
MIC [5]: ≤ 0.125 µg/mL
MIC [6]: 0.25 µg/mL (≈ 0.409 µM)
MIC [7]: 1 µg/mL (≈ 1.63 µM)
MIC [8]: 4 µg/mL (≈ 6.54 µM)
MIC [9]: 0.5 µg/mL (≈ 0.817 µM)
MIC [10]: 8 µg/mL (≈ 13.1 µM)
MIC [11]: 2 µg/mL (≈ 3.27 µM)
MIC [12]: 8 µg/mL (≈ 13.1 µM)
MIC [13]: 8 µg/mL (≈ 13.1 µM)
MIC [14, 23]: 8 µg/mL (≈ 13.1 µM)
MIC [15]: 8 µg/mL (≈ 13.1 µM)
MIC [16, 24]: 8 µg/mL (≈ 13.1 µM)
MIC [17]: 8 µg/mL (≈ 13.1 µM)
MIC [18]: 4 µg/mL (≈ 6.54 µM)
MIC [19]: 8 µg/mL (≈ 13.1 µM)
MIC [20]: 8 µg/mL (≈ 13.1 µM)
MIC [21]: 16 µg/mL (≈ 26.2 µM)
MIC [22]: 16 µg/mL (≈ 26.2 µM)

MIC [10]: 8 µg/mL (≈ 12.8 µM)
MIC [11]: 1 µg/mL (≈ 1.6 µM)
MIC [12]: 16 µg/mL (≈ 25.6 µM)
MIC [13]: 16 µg/mL (≈ 25.6 µM)
MIC [14, 23]: 16 µg/mL (≈ 25.6 µM)
MIC [15]: 16 µg/mL (≈ 25.6 µM)
MIC [16, 24]: 16 µg/mL (≈ 25.6 µM)
MIC [17]: 16 µg/mL (≈ 25.6 µM)
MIC [18]: 2 µg/mL (≈ 3.2 µM)
MIC [19]: 16 µg/mL (≈ 25.6 µM)
MIC [20]: 8 µg/mL (≈ 12.8 µM)
MIC [21]: 16 µg/mL (≈ 25.6 µM)
SMILES: CC1(C)[C@H](NC(=O)/C(=N\OCCOc2ccc3c(c2)CC[N+](C)(CCCN)C3)c2csc(N)n2)C(=O)N1OS(=O)(=O)[O-] (some centres unmarked) [Compound 5]

SMILES: C[C@@H](O)[C@H]1C(=O)N2C(C(=O)O)=C(SCCN=CN)C[C@H]12 [Imipenem, reference compound]
MIC [10]: 16 µg/mL (≈ 53.4 µM)
MIC [11]: 0.25 µg/mL (≈ 0.835 µM)
MIC [12]: 64 µg/mL (≈ 214 µM)
MIC [13]: 1 µg/mL (≈ 3.34 µM)
MIC ([14]; ATCCBAA1793): 128 µg/mL (≈ 428 µM)
MIC [15]: 64 µg/mL (≈ 214 µM)
MIC ([16]; ATCCBAA1800): 128 µg/mL (≈ 428 µM)
MIC [17]: 32 µg/mL (≈ 107 µM)
MIC [18]: 32 µg/mL (≈ 107 µM)
MIC [19]: 0.5 µg/mL (≈ 1.67 µM)
MIC [20]: 64 µg/mL (≈ 214 µM)
MIC [21]: 32 µg/mL (≈ 107 µM)

SMILES: CC1(C)[C@H](NC(=O)/C(=N\OCCOc2ccc3c(c2)CCN(CCCNC(=N)N)C3)c2csc(N)n2)C(=O)N1OS(=O)(=O)O [Compound 7]
MIC [1]: 0.5 µg/mL (≈ 0.765 µM)
MIC [2]: 4 µg/mL (≈ 6.12 µM)
MIC [3]: 1 µg/mL (≈ 1.53 µM)
MIC [4]: 16 µg/mL (≈ 24.5 µM)
MIC [5]: ≤ 0.125 µg/mL
MIC [6]: 0.25 µg/mL (≈ 0.382 µM)
MIC [7]: 1 µg/mL (≈ 1.53 µM)
MIC [8]: 2 µg/mL (≈ 3.06 µM)
MIC [9]: 0.5 µg/mL (≈ 0.765 µM)
MIC [10]: 8 µg/mL (≈ 12.2 µM)
MIC [11]: 2 µg/mL (≈ 3.06 µM)
MIC [12]: 8 µg/mL (≈ 12.2 µM)
MIC [13]: 4 µg/mL (≈ 6.12 µM)
MIC [14, 23]: 4 µg/mL (≈ 6.12 µM)
MIC [15]: 8 µg/mL (≈ 12.2 µM)
MIC [16, 24]: 4 µg/mL (≈ 6.12 µM)
MIC [17]: 4 µg/mL (≈ 6.12 µM)
MIC [18]: 2 µg/mL (≈ 3.06 µM)
MIC [19]: 8 µg/mL (≈ 12.2 µM)
MIC [20]: 8 µg/mL (≈ 12.2 µM)
MIC [21]: 8 µg/mL (≈ 12.2 µM)
MIC [22]: 8 µg/mL (≈ 12.2 µM)
